Several values for one entry are separate records, joined by “and”; a condition that tells them apart may be missing. Equal values may be shown once. Toxic doses and inconclusive results are not listed. The calls were made as follows: active = survival T/C of 150% or more; inactive = T/C below 125% in these data.
Test system: P388 leukemia ip, CD2F1 mice, survival T/C
Assay: NCI In Vivo Anticancer Drug Screen. Data for tumor model P388 Leukemia (intraperitoneal) in CD2F1 (CDF1) mice
Details: endpoint: median survival time, higher = longer survival
Summary of the method: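 Mice carrying the transplanted tumor received test compound or vehicle. Survival was recorded in each group, and the value is the treated-group measurement divided by that of the vehicle-treated control group.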

[1] = dose: 60.0 mg/kg/injection, schedule: Q01DX005 (ip), vehicle: saline with Tween-80
[2] = dose: 120.0 mg/kg/injection, schedule: Q01DX005 (ip), vehicle: saline with Tween-80
[3] = dose: 240.0 mg/kg/injection, schedule: Q01DX005 (ip), vehicle: saline with Tween-80
[4] = dose: 50.0 mg/kg/injection, schedule: Q01DX005 (ip), vehicle: Klucel (hydroxypropylcellulose) (HPC)
[5] = dose: 100.0 mg/kg/injection, schedule: Q01DX005 (ip), vehicle: Klucel (hydroxypropylcellulose) (HPC)
[6] = dose: 200.0 mg/kg/injection, schedule: Q01DX005 (ip), vehicle: Klucel (hydroxypropylcellulose) (HPC)
[7] = dose: 100.0 mg/kg/injection, schedule: Q01DX009 (ip), vehicle: saline with Tween-80
[8] = dose: 100.0 mg/kg/injection, schedule: Q01DX001 (ip), vehicle: Klucel (hydroxypropylcellulose) (HPC)
[9] = dose: 25.0 mg/kg/injection, schedule: Q01DX005 (ip), vehicle: Klucel (hydroxypropylcellulose) (HPC)
[10] = dose: 60.0 mg/kg/injection, schedule: Q01DX005 (ip), vehicle: Klucel (hydroxypropylcellulose) (HPC)
[11] = dose: 120.0 mg/kg/injection, schedule: Q01DX005 (ip), vehicle: Klucel (hydroxypropylcellulose) (HPC)
[12] = dose: 240.0 mg/kg/injection, schedule: Q01DX005 (ip), vehicle: Klucel (hydroxypropylcellulose) (HPC)
[13] = dose: 100.0 mg/kg/injection, schedule: Q01DX001 (ip), vehicle: saline with Tween-80
[14] = dose: 200.0 mg/kg/injection, schedule: Q01DX001 (ip), vehicle: saline with Tween-80
[15] = dose: 400.0 mg/kg/injection, schedule: Q01DX001 (ip), vehicle: saline with Tween-80
[16] = dose: 50.0 mg/kg/injection, schedule: Q01DX005 (ip), vehicle: saline with Tween-80
[17] = dose: 100.0 mg/kg/injection, schedule: Q01DX005 (ip), vehicle: saline with Tween-80
[18] = dose: 200.0 mg/kg/injection, schedule: Q01DX005 (ip), vehicle: saline with Tween-80
[19] = dose: 100.0 mg/kg/injection, schedule: Q04DX003 (ip), vehicle: Klucel (hydroxypropylcellulose) (HPC)
[20] = dose: 200.0 mg/kg/injection, schedule: Q04DX003 (ip), vehicle: Klucel (hydroxypropylcellulose) (HPC)

Measured: T/C

COc1cc2cc3c(-c4ccccc4)noc3nc2cc1OC
inactive: [1] 106 % of control | [2] 93 % of control | [3] 90 % of control

Cc1nc2c(cnn2C)c(=O)n1C
inactive: [4] 111 % of control | [5] 111 % of control | [6] 111 % of control

O=C(NC(CO)C(=O)OCc1ccccc1)OCc1ccccc1 (stereo not given)
inactive: [7] 90 % of control | dose: 200.0 mg/kg/injection, schedule: Q01DX009 (ip), vehicle: saline with Tween-80 90 % of control | dose: 400.0 mg/kg/injection, schedule: Q01DX009 (ip), vehicle: saline with Tween-80 95 % of control

CCCc1cccc2c3c([nH]c12)C(CC)(CC(=O)O)OCC3 (stereo not given)
inactive: [8] 96 % of control | dose: 200.0 mg/kg/injection, schedule: Q01DX001 (ip), vehicle: Klucel (hydroxypropylcellulose) (HPC) 96 % of control | dose: 400.0 mg/kg/injection, schedule: Q01DX001 (ip), vehicle: Klucel (hydroxypropylcellulose) (HPC) 91 % of control

[O-][n+]1ccc(Br)c(/C=C/c2ccccc2)c1
inactive: dose: 30.0 mg/kg/injection, schedule: Q01DX005 (ip), vehicle: saline with Tween-80 101 % of control | [1] 101 % of control | [2] 102 % of control | [3] 101 % of control

CCc1nc(N)nc(N)c1-c1ccc(N(C)C)cc1
inactive: dose: 6.25 mg/kg/injection, schedule: Q01DX005 (ip), vehicle: Klucel (hydroxypropylcellulose) (HPC) 97 % of control | dose: 12.5 mg/kg/injection, schedule: Q01DX005 (ip), vehicle: Klucel (hydroxypropylcellulose) (HPC) 98 % of control | [9] 96 % of control | [4] 95 % of control

COc1ccc(N=C2C(=Nc3ccc(OC)cc3)N(S(=O)(=O)c3ccc(C)cc3)C(=S)N2c2ccccc2)cc1
inactive: dose: 50.0 mg/kg/injection, schedule: Q01DX005 (ip), vehicle: Klucel + Tween-80 100 % of control | dose: 100.0 mg/kg/injection, schedule: Q01DX005 (ip), vehicle: Klucel + Tween-80 98 % of control

O=c1c(N(CCO)CCO)cn(Cc2ccccc2)c(=O)n1Cc1ccccc1
inactive: [9] 100 % of control | [4] 102 % of control | [5] 103 % of control | [6] 97 % of control

O=S(=O)(c1ccccc1)N1OC1c1ccccc1 (stereo not given)
inactive: dose: 50.0 mg/kg/injection, schedule: Q01DX009 (ip), vehicle: saline with Tween-80 100 % of control | [10] 104 % of control | [7] 86 % of control | [11] 104 % of control | [12] 99 % of control

OCC1CC2(C1)CC(CO)C2 (stereo not given)
inactive: [13] 97 % of control | [14] 104 % of control | [15] 99 % of control

COc1ccc(S(=O)(=O)O)cc1N=N/C(=N/Nc1cc(S(=O)(=O)O)ccc1OC)C(=O)Nc1ccccc1
inactive: [10] 101 % of control | [11] 101 % of control | [12] 105 % of control

O=C(CC(c1ccncc1)C(C(=O)c1ccc(Cl)cc1)C(c1ccncc1)C(C(=O)c1ccc(Cl)cc1)C(O)c1ccncc1)c1ccc(Cl)cc1 (stereo not given)
inactive: [16] 101 % of control | [17] 93 % of control | [18] 93 % of control

Cc1ccc(Cl)c(C(O)(C(F)(F)F)C(F)(F)F)c1
inactive: dose: 100.0 mg/kg/injection, schedule: Q01DX001 (ip), vehicle: other 95 % of control | [13] 108 % of control | dose: 200.0 mg/kg/injection, schedule: Q01DX001 (ip), vehicle: other 92 % of control | [14] 108 % of control | [15] 93 % of control

Cc1cc(C)c2c(Nc3ccc4c(c3)OCO4)c(C(=O)O)cnc2c1
inactive: dose: 60.0 mg/kg/injection, schedule: Q04DX002 (ip), vehicle: Klucel + Tween-80 95 % of control | dose: 120.0 mg/kg/injection, schedule: Q04DX002 (ip), vehicle: Klucel + Tween-80 92 % of control | dose: 240.0 mg/kg/injection, schedule: Q04DX002 (ip), vehicle: Klucel + Tween-80 101 % of control

CCOP(=O)(NCCCOC)OCC
inactive: dose: 25.0 mg/kg/injection, schedule: Q01DX005 (ip), vehicle: saline 97 % of control | dose: 50.0 mg/kg/injection, schedule: Q01DX005 (ip), vehicle: saline 100 % of control | dose: 100.0 mg/kg/injection, schedule: Q01DX005 (ip), vehicle: saline 99 % of control

c1csc(C2N3CCN(CC3)C(c3cccs3)N3CCN2CC3)c1 (stereo not given)
inactive: [1] 100 % of control | [2] 104 % of control | [3] 103 % of control

NS(=O)(=O)c1nc2nc[nH]c(=O)c2[nH]1
inactive: [16] 100 % of control | [17] 106 % of control | [18] 101 % of control

CCN(CC)C(=O)N1CCN(C(=O)c2cc(Nc3ccnc4cc(Cl)ccc34)ccc2O)CC1
inactive: dose: 100.0 mg/kg/injection, schedule: Q04DX002 (ip), vehicle: saline with Tween-80 100 % of control | dose: 200.0 mg/kg/injection, schedule: Q04DX002 (ip), vehicle: saline with Tween-80 100 % of control | dose: 400.0 mg/kg/injection, schedule: Q04DX002 (ip), vehicle: saline with Tween-80 89 % of control

C=C1C(=O)OC2C(O)CCCC12 (stereo not given)
inactive: dose: 50.0 mg/kg/injection, schedule: Q04DX003 (ip), vehicle: Klucel (hydroxypropylcellulose) (HPC) 105 % of control and 110 % of control | [19] 98 % of control and 103 % of control | [20] 110 % of control

CN1CC2(CO)C(c3ccccn3)N(C)C(c3ccccn3)C(CO)(C1)C2O (stereo not given)
inactive: [1] 107 % of control | [2] 104 % of control

CC(=O)Oc1ccc2[nH]c(C)cc2c1
inactive: [13] 100 % of control | [14] 98 % of control | [15] 93 % of control | dose: 800.0 mg/kg/injection, schedule: Q01DX001 (ip), vehicle: saline with Tween-80 103 % of control

CCCCCCCCCCCCCCC(Cl)C/[N+]([O-])=[N+](/[O-])CC(Cl)CCCCCCCCCCCCCC (stereo not given)
inactive: dose: 100.0 mg/kg/injection, schedule: Q04DX003 (ip), vehicle: saline 92 % of control | dose: 200.0 mg/kg/injection, schedule: Q04DX003 (ip), vehicle: saline 92 % of control | dose: 400.0 mg/kg/injection, schedule: Q04DX003 (ip), vehicle: saline 92 % of control

COC(=O)[CH](C[N+](=O)[O-])[Hg][Cl] (stereo not given)
inactive: dose: 3.12 mg/kg/injection, schedule: Q01DX009 (ip), vehicle: saline with Tween-80 100 % of control | dose: 6.25 mg/kg/injection, schedule: Q01DX009 (ip), vehicle: saline with Tween-80 100 % of control | dose: 12.5 mg/kg/injection, schedule: Q01DX009 (ip), vehicle: saline with Tween-80 95 % of control

C1CCC2CC2C2(CC1)CO2 (stereo not given)
inactive: [19] 106 % of control | [20] 108 % of control | dose: 400.0 mg/kg/injection, schedule: Q04DX003 (ip), vehicle: Klucel (hydroxypropylcellulose) (HPC) 115 % of control

O=C(NO)C1(Br)CCCCC1Br (stereo not given)
inactive: [8] 91 % of control

NC(=O)CCC(NS(=O)(=O)c1ccc(NC(=O)c2ccc(Cl)cc2)cc1)C(=O)O (stereo not given)
inactive: [4] 104 % of control | [5] 102 % of control | [6] 102 % of control

COc1ccc(C(C)c2cc(N=NC(N)=O)c(OC)cc2O)cc1 (stereo not given)
inactive: dose: 12.5 mg/kg/injection, schedule: Q01DX005 (ip), vehicle: saline with Tween-80 94 % of control | dose: 25.0 mg/kg/injection, schedule: Q01DX005 (ip), vehicle: saline with Tween-80 90 % of control | [16] 90 % of control
